What all share (format): biochemical
Experiment [1] addresses T1, human MNK (N-acetylmannosamine kinase) (Homo sapiens, UniProt Q9Y223).
T1 construct: His; made in house; host or cells: Escherichia coli BL21-CodonPlus (DE3)-RIL
T1 sequence (Q9Y223 406-722 limits assumed): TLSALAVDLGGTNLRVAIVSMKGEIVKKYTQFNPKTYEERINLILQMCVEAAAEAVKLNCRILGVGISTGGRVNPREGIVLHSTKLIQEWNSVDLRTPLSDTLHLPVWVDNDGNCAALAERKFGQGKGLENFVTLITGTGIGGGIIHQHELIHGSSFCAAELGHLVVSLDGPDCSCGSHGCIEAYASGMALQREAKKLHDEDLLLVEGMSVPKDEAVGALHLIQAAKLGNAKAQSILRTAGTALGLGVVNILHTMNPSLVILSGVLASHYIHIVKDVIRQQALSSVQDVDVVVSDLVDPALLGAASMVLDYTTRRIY
In words: MNK activity, coupled optical assay based on NADH consumption. As for the experimental part:
(§1) N-Acetylmannosamine kinase and N-acetylglucosamine kinase expression and […]
(§2) Human N-acetylmannosamine kinase (MNK) was expressed and purified using an established method.1 Therefore, his-tagged MNK was expressed in BL21-CodonPlus (DE3)-RIL Escherichia coli (Stragene). Purification was performed by Ni-NTA affinity chromatography, and subsequently size exclusion chromatography on a SuperdexTM HighLoad 16/600 column (GE Healthcare). […]
To evaluate their purity, protein samples were mixed with SDS-PAGE sample buffer, denatured at 90 °C for 1 min and separated by a 10% SDS-PAGE gel. Proteins were visualized with Coomassie G-250 staining solution (Biorad), and PageRuler Prestained Plus (Biorad) was used as a marker (Figure S1 ).
Figure S1. SDS-PAGE of His-tagged MNK (His-MNK) and GST-tagged GNK
(GST-GNK) after affinity chromatography and size exclusion chromatography.
Apparent molecular masses given by the marker are indicated on the left side.
1 J. Martinez, L. D. Nguyen, S. Hinderlich, R. Zimmer, E. Tauberger, W. Reutter, W. Saenger, H. Fan
2 W.A. Weihofen, M. Berger, H. Chen, W. Saenger, and S. Hinderlich, J. Mol. Biol., 2006, 364, 388.
(1 picture or pasted object on this page, not shown here)
(§3) Enzyme activity and inhibition studies using N-acetylmannosamine kinase, N-acetylglucosamine kinase and yeast hexokinase
(§4) Evaluation MNK activity in presence of the compounds 11, 12, 14b, 16b and 18b The effects of compounds 11, 12, 14b, 16b, or 18b on MNK enzyme activity were evaluated using a coupled optical assay. 55 µl reaction mixture contained the following buffers and reagents: 39.5 µl buffer A (65 mM MgCl2, 200 mM Tris-HCl, pH 8.1), 5 µl ATP (50 mM), 3.5 µl NADH (30 mM), 2 µl phosphoenolpyruvate (100 mM), 2 U pyruvate-kinase, 2 U lactate-dehydrogenase, 5 µl ManNAc of varying concentrations. Subsequently, 10 µl of the compounds 11, 12, 14b, 16b and 18b were added in varying concentrations. The reaction was initiated by adding 0.6 µg MNK in 35 µL buffer B (10 mM Tris-HCl, 150 mM NaCl, pH 8.0). Samples were incubated at 37°C. Spectrophotometric measurements of NADH concentration was performed at 340 nm. Results obtained were normalized to blanks, consisting of 55 µl reaction mixture, 10 µl H 2O and 35 µl buffer B without MNK.
GNK and hexokinase inhibition assays using compound 14b
To evaluate the specificity of the inhibitor 14b towards other sugar kinases, we performed further inhibition experiments using human GNK and hexokinase (HK) from yeast (Sigma, H-5000). 39.5 µl Buffer A (see above), 5 µl ATP (50 mM), 3.5 µl NADH (30 mM), 2 µl phosphoenolpyruvate (100 mM), 2 U pyruvate-kinase, 2 U lactate-dehydrogenase, 5 µl GlcNAc (7.5 mM, for GNK experiments), or 5 µl ManNAc (7.5 mM, for GNK experiments), or glucose (5 mM, for HK experiments), and 10 µl 14b (varying concentrations) were mixed with either 1 µg GNK or 0.2 µg HK in 35 µL buffer B. The decrease of NADH was measured in a spectrophotometer […]
5 mM for HK activity, respectively (Figure S2).
Figure S2. Inhibition of GNK and HK activity by 14b. Values are means ± SEM of […]

Experiment [2] deals with T2, human GlcNAc kinase (GNK) (Homo sapiens, UniProt Q9UJ70).
T2 construct: GST; made in house; host or cells: Escherichia coli BL21-CodonPlus(DE3)-RIL
T2 sequence (Q9UJ70 whole entry): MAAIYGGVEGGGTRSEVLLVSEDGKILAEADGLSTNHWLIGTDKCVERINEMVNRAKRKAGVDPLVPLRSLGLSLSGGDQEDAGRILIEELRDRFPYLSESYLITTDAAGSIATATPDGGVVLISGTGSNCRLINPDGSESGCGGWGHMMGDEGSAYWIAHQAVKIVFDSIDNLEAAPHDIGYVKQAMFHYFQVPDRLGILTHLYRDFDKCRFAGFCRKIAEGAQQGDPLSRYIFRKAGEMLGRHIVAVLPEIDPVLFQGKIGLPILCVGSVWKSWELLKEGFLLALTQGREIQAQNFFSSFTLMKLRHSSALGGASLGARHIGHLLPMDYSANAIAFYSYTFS
The experiment is described as follows: GNK inhibition, coupled optical assay.
Excerpt: (§5) With the potent diselenide compound 14b in hand, we further studied the binding properties of this potent MNK inhibitor, which is to our knowledge the strongest MNK inhibitor reported to date. Diselenide 14b inhibited MNK activity in a dose dependent manner (Fig. 2A). […] Additionally, we tested if diselenide 14b influenced the GNE activity of the bifunctional GNE/MNK. […] To evaluate the specificity of the inhibitor towards other sugar kinases, we performed further inhibition studies using human GlcNAc kinase (GNK) and hexokinase (HK) from yeast (details in ESI ^†).
as §1, §2
Evaluation MNK activity in presence of the compounds 11, 12, 14b, 16b and 18b The effects of compounds 11, 12, 14b, 16b, or 18b on MNK enzyme activity were evaluated using a coupled optical assay. […]

Experiment [3] addresses hexokinase (HK) from yeast. The experiment is described as follows: Hexokinase inhibition, coupled optical assay. The following applies: glucose substrate.
Excerpt: as §5, §3
as §4, with “Samples were incubated at 37°C. Spectrophotometric measurements of NADH concentration was performed at 340 nm. Results obtained were normalized to blanks, consisting of 55 µl reaction mixture, 10 µl H 2O and 35 µl buffer B without MNK.” left out

Where “and” joins values, the source holds several entries; their conditions need not be identical. Equal values may be shown once.

One may read the Ki as a measure of affinity in units of concentration, obtained from inhibition or displacement. For orientation: IC50 means the concentration at which inhibition is half-maximal. Turning to `CC(=O)N[C@@H]1C(O)O[C@H](C[Se][Se]C[C@H]2OC(O)[C@@H](NC(C)=O)[C@@H](O)[C@@H]2O)[C@@H](O)[C@@H]1O` (some centres unmarked) [Compound 14b], the “mode of inhibition towards ManNAc” value in experiment [1] (14b 25 μM, different concentrations of ManNAc) is on record as “competitive inhibition”. The inhibition constant (Ki) in experiment [1] (14b 25 μM, different concentrations of ManNAc, Lineweaver-Burk plot, read-out: inhibitor constant (Ki)) is 15.7 µM. Further, the half-inhibitory concentration (IC50) was 8.5 µM in experiment [1] (purified human MNK, ManNAc 125 μM, ATP, means ± SEM, read-out: IC50 for MNK inhibition); ~1700 µM and 1700 µM in experiment [2]; over 5000 µM in experiment [3].

(Values after article PMC6013775, “Inhibition of the key enzyme of sialic acid biosynthesis by C6-Se modified N-acetylmannosamine analogs” (Chemical Science, 2016).)
